We go through 6 compounds from patent US6156790A, “C-10 carbon-substituted artemisinin-like trioxane compounds having antimalarial, antiproliferative and antitumor activities” (priority 1997, dated 2000).

The structures appear in SMILES notation. Bounds are passed on as bounds.

Data set [1] deals with murine keratinocyte cell line PE. Nature of the data set: viability by trypan blue exclusion. It is filed as cell-based. The settings on record: 96 hours.
Data set [2] has as its system Ehrlich ascites tumor (EAT) cells. The settings on record: cited from earlier work.
Data set [3] concerns P. berghei. The following applies: cited from earlier work.
Data set [4] has as its system K-562. Nature of the data set: cells. The following applies: Homo sapiens, K562, read-out: Log10 TGI. The format is cell-based.
Data set [5] deals with MOLT-4. Briefly: cells. The settings on record: Homo sapiens, MOLT-4, read-out: concentration for primary growth inhibition. On the procedure:
The screening assay is performed on a 96-well microtitre plates.
Dose response curves, shown in the above mentioned Figures, are obtained by exposing various cancer cell lines to compounds having a known concentration ([log10 M]), as discussed in detail above, and then plotting the percentage growth of each cell line for each concentration. […] As discussed previously, the five drug dilutions routinely tested range from 10^-4 to 10^-9 molar.

Data set [6] has as its system A549/ATCC. Nature of the data set: NCI 60 cell line screen (SRB), non-small cell lung cancer. It is filed as cell-based. The settings on record: Homo sapiens.
Data set [7] deals with EKVX. The description is as above. It is filed as cell-based. The following applies: Homo sapiens.
The subject of data set [8] is HOP-62. Briefly: cells. The format is cell-based. The settings on record: Homo sapiens, read-out: Log10 TGI (converted).
For data set [9], the system named is HOP-92. Nature of the data set: NCI 60 cell line screen (SRB), non-small cell lung cancer. The format is cell-based. The settings on record: Homo sapiens, read-out: Log10 TGI (converted).
Data set [10] concerns NCI-H226. The description is as above. It is filed as cell-based. The settings on record: Homo sapiens.
Data set [11] relates to NCI-H23. The description is as above. The following applies: Homo sapiens. It is filed as cell-based.
Data set [12] relates to NCI-H460. Nature of the data set: cells. The format is cell-based. The settings on record: Homo sapiens.
Data set [13] has as its system NCI-H522. Nature of the data set: cells. It is filed as cell-based. The following applies: Homo sapiens, read-out: Log10 TGI (converted).
For data set [14], the system named is COLO 205. Nature of the data set: NCI 60 cell line screen (SRB), colon cancer. The format is cell-based. The following applies: Homo sapiens, read-out: Log10 TGI (converted).
The subject of data set [15] is HCT-116. Briefly: cells. The format is cell-based. The following applies: Homo sapiens, read-out: Log10 TGI (converted).
Data set [16] concerns HCT-15. Nature of the data set: cells. It is filed as cell-based. The settings on record: Homo sapiens, HCT-15, read-out: Log10 TGI.
Data set [17] deals with HT29. Nature of the data set: cells. It is filed as cell-based. The following applies: Homo sapiens, HT-29, read-out: Log10 TGI (converted).
Data set [18] has as its system KM12. Nature of the data set: cells. The settings on record: Homo sapiens, read-out: Log10 TGI (converted). It is filed as cell-based.
The test system of data set [19] is SF-268. Briefly: NCI 60 cell line screen (SRB), CNS cancer. It is filed as cell-based. The following applies: Homo sapiens, read-out: Log10 TGI (converted).
Data set [20] has as its system SF-295. Briefly: cells. The format is cell-based. The settings on record: Homo sapiens, read-out: Log10 TGI (converted).
For data set [21], the system named is SF-539. Nature of the data set: cells. The format is cell-based. The following applies: Homo sapiens, read-out: Log10 TGI (converted).
Data set [22] concerns SNB-75. Briefly: cells. The following applies: Homo sapiens. It is filed as cell-based.
The subject of data set [23] is U251. Briefly: cells. It is filed as cell-based. The following applies: Homo sapiens, U-251, read-out: Log10 TGI (converted).
In data set [24] the test system is A498. Briefly: cells. The settings on record: Homo sapiens, read-out: Log10 GI50 (converted). The format is cell-based.
For data set [25], the system named is PC-3. Briefly: cells. It is filed as cell-based. The settings on record: Homo sapiens, PC-3, read-out: Log10 TGI.
Data set [26] concerns MCF7. Briefly: cells. The format is cell-based. The settings on record: Homo sapiens.
Data set [27] has as its system MDA-MB231/ATCC. Nature of the data set: cells. The format is cell-based. The following applies: Homo sapiens, MDA-MB-231, read-out: Log10 TGI (converted).
In data set [28] the test system is HS 578T. Nature of the data set: cells. The format is cell-based. The settings on record: Homo sapiens, read-out: Log10 TGI (converted).
Data set [29] has as its system MDA-MB-435. Nature of the data set: cells. The format is cell-based. The following applies: Homo sapiens, read-out: Log10 TGI (converted).
The subject of data set [30] is MDA-N. Nature of the data set: cells. The format is cell-based. The following applies: Homo sapiens.
The subject of data set [31] is BT-549. Briefly: cells. It is filed as cell-based. The following applies: Homo sapiens, read-out: Log10 TGI (converted).
The subject of data set [32] is T-47D. Briefly: cells. It is filed as cell-based. The settings on record: Homo sapiens, T47D, read-out: Log10 TGI.
Data set [33] concerns 60 cell line panel. Briefly: NCI 60 cell line screen, whole panel. It is filed as cell-based.
For data set [34], the system named is murine keratinocyte cell line PE. Briefly: growth inhibition of PE cells (MTT assay). The format is cell-based. The following applies: 100 nanomolar. The procedure: To determine the inhibitory effect of the compositions of the present invention on cell proliferation, screening assays were performed on a murine keratinocyte cell line PE. Cell line PE was chosen for its particular sensitivity to the induction of ornithine decarboxylase (ODC) activity by the extensively characterized tumor promoter TPA. […] PE cell culture medium consisted of Eagle's minimal essential medium without calcium chloride (Whittaker Bioproducts, Walkersville, Mass.) supplemented with 8% chelexed fetal calf serum and 1% antibiotic-antimycotic (Gibco BRL) and the addition of CaCl2 to 0.05 mM Ca^++.
Growth Inhibition. Growth curves, shown in FIGS. 1 and 2, for PE cells treated with calcitriol and the C-10 carbon-substituted dimers 21, 22, 26, 27, and 28 generated by assay for the reduction of the tetrazolium-based compound MTT, see Charmichael, et al., Cancer Res., 47:936-942 (1987). […] PE cells were seeded at a density of 5,000 cells/well in 50 μL of medium into 96-well microtiter plates. Twelve hours later, the medium was removed, and cells were treated with 100 μL of fresh medium into which the appropriate amount of calcitrol or analog dissolved in dimethyl sulfoxide (DMSO) had been added, with the concentration of DMSO held constant at 0.1%. […] At 24-hour intervals following the initial treatment of the cells with compounds, 0.1 mg (50 μL of a 2 mg/mL solution) of MTT was added to each well. After 4 hours, the MTT was removed and DMSO added to dissolve the blue formazan dye. Using a microtiter plate reader, the A505 was then determined and cell number calculated from blank-subtracted absorbance values.
A general note: Formazan colour is commonly taken as a measure of viable cells.

The test system of data set [35] is chloroquine-sensitive P. falciparum (NF54). Briefly: In vitro antimalarial activity ([3H]hypoxanthine incorporation). It is filed as cell-based. The settings on record: in words. The procedure:
Activity was determined by measuring the incorporation of [^3 H]hypoxanthine, by the methods of Desjardins and Milhouse, with the following modofications, see […].; Haynes, […]. Antimicrob. Agents Chemother., 16:710 (1979); Milhous, W. K.; Weatherly, […].; Antimicrob. Agents Chemother., 27: 525 (1985). […] Parasitemia was maintained at 0.05-3% and doubling time at approximately 15 hours by twice weekly change of medium and replenishment with fresh erythrocytes. […] Sigma-Aldrich #27,043-1). DMSO solutions were diluted 500-fold in medium, serially diluted in 0.2% DMSO in medium (to maintain constant solvent concentration), then 100 μL aliquots were pipetted into microtiter plate wells (Costar 3595). […] Plates included at least 8 wells of no drug controls (4 with and 4 without DMSO) and 4 wells of uninfected erythrocytes. […] Cells were harvested (Brandel MB-48R) onto GF-C glass filters (Brandel). The filters were washed five times with 3 mL water per sample spot, dried under a heat lamp, and counted (Beckman Model LS-6500) in scintillation cocktail (ICN Cytoscint). Decays per minute (dpm) values were downloaded and analyzed (Power MFacintosh 7200/90; Microsoft Excel 5.0), to yield the mean and standard deviation at each drug concentration.

Data set [36] relates to IGROVI. Nature of the data set: cells. The following applies: 60 cell.
The subject of data set [37] is ACHN. Briefly: cells. The following applies: Homo sapiens, read-out: Log10 LC50 (converted).
The conditions of data set [38]: cited from earlier work.
The conditions of data set [39]: rat liver microsomes; cited from earlier work.
The mark [40] stands for this setting: read-out: Log10 LC50 (converted).
Where [41] appears, read: read-out: Log10 TGI (converted).
The mark [42] stands for this setting: read-out: Log10 GI50 (converted).

Consider `C=C1/C(=C\C=C2/CCC[C@]3(C)[C@@H]([C@H](C)CCCC(C)(C)O)CC[C@@H]23)C[C@@H](O)C[C@@H]1O` [calcitriol, 1α,25-dihydroxyvitamin D3], for which, in data set [1], the “viability of treated cells vs control cells” value was “identical to control cells”.
With `C[C@@H]1CC[C@H]2[C@@H](C)C(OC3O[C@@H]4O[C@@]5(C)CC[C@H]6[C@H](C)CC[C@@H]([C@H]3C)[C@@]46OO5)O[C@@H]3O[C@@]4(C)CC[C@@H]1[C@]32OO4` (some centres unmarked), in data set [2], the “times more cytotoxic than artemisinin” value is recorded as “approximately twenty-two” and the “times more cytotoxic than dihydroartemisinin (II-1)” value is reported as “sixty”. For the same compound, the “times more potent than artemisinin at 50% growth inhibition” value in [2] (one cancer cell line) was “approximately twenty-two”. Moreover, in data set [3] (P. berghei-infected mice), the “SD90 (parasitemia 90 percent suppressed)” value was 10 mg/kg.
For `CC1=CO[C@@H]2O[C@@]3(C)CC[C@H]4[C@H](C)CC[C@@H]1[C@@]24OO3` [olefinic compound III], the “activity against P. berghei-infected mice” value in data set [3] (in words) is “inactive”.
Turning to `C[C@H]1[C@@H](CC(=O)c2cccc(C(=O)C[C@H]3O[C@@H]4O[C@@]5(C)CC[C@H]6[C@H](C)CC[C@@H]([C@H]3C)[C@@]46OO5)c2)O[C@@H]2O[C@@]3(C)CC[C@H]4[C@H](C)CC[C@@H]1[C@@]24OO3` [Dimer 22], the IC (TGI) in data set [4], in data set [6] (setting [41]), in [7] (setting [41]), in data set [8], in data set [9] and in data set [10] (setting [41]) was more than 100 µM throughout. Moreover, the IC (TGI) in data set [11] (setting [41]) was more than 100 µM; in data set [12] (NCI-H460, read-out: Log10 TGI) it was more than 100 µM; in [13], more than 100 µM; in data set [14], more than 100 µM; in data set [15], more than 100 µM; in [16], more than 100 µM. The IC (TGI) in [17], in data set [18], in data set [19], in [20], in data set [21] and in data set [22] (setting [41]) was more than 100 µM each time. Further, the IC (TGI) is more than 100 µM in data set [23]; more than 100 µM in [25]; more than 100 µM in data set [26] (MCF7, read-out: Log10 TGI); more than 100 µM in [27]; more than 100 µM in data set [28]; more than 100 µM in [29]. Also, the IC (TGI) in data set [30] (setting [41]), in data set [31] and in data set [32] was more than 100 µM in each case. Further, the GI50 in data set [5] was more than 100 µM; in data set [22] (setting [42]) it was 4.37 µM; in data set [24], 46.8 µM; in [26] (MCF7, read-out: Log10 GI50 (converted)), 0.389 µM; in [33] (60 cell, mean over panel, read-out: Log10 GI50 MG MID (converted)), 75.9 µM; in data set [36] (setting [42]), 0.589 µM. Moreover, the CC50 in data set [6] (setting [40]) is more than 100 µM; in [7] (setting [40]), more than 100 µM; in data set [10] (setting [40]) it was more than 100 µM; in [12] (NCI-H460, read-out: Log10 LC50 (converted)), more than 100 µM; in data set [30] (setting [40]) it was more than 100 µM; in data set [36] (Homo sapiens, read-out: Log10 LC50 (converted)), more than 100 µM. Besides, the CC50 in [37] is more than 100 µM. Further, in [11] (setting [40]), the LC50 was more than 100 µM. For the same compound, the “Log10 TGI Delta” value in [33] (panel) was found to be 0.00. The “Log10 TGI Range” value in data set [33] (panel) was determined as 0.00. Moreover, the “antiproliferative activity compared with calcitriol” value in data set [34] is on record as “at least as antiproliferative as calcitrol”. The “IC50 compared with artemisinin” value in [35] is given as “lower than that of artemisinin”.
Take `C[C@@H]1CC[C@H]2[C@@H](C)C(O)O[C@@H]3O[C@@]4(C)CC[C@@H]1[C@]32OO4` (some centres unmarked) [dihydroartemisinin (II-1), dihydroartemisinin]: the half-life in plasma result in [38] is “less than two”.
Turning to `CCO[C@H]1O[C@@H]2O[C@@]3(C)CC[C@H]4[C@H](C)CC[C@@H]([C@H]1C)[C@@]24OO3` [arteether], the “conversion into dihydroartemisinin (II-1)” value in data set [39] is on record as “rapidly converted”.

As usually defined, the LC50 is the concentration lethal to half of the exposed cells or organisms.
